Values of other authors as cited in patent publication US9556167B2, “TLR-agonist-conjugated antibody recruiting molecules (TLR-ARMs)” (YALE UNIVERSITY, priority 2012, dated 2017).

How the values were obtained:
[1] = test system: advanced prostate cancer patients
[2] = test system: aggressive end-stage prostate cancer

| Compound | prolongation of life on average [1] | patients with reduced PSA levels and tumor sizes [2] |
| --- | --- | --- |
| CC(=O)O[C@@]12CO[C@@H]1C[C@H](O)[C@@]1(C)C(=O)[C@H](O)C3=C(C)[C@@H](OC(=O)[C@H](O)[C@@H](NC(=O)OC(C)(C)C)c4ccccc4)C[C@@](O)([C@@H](OC(=O)c4ccccc4)[C@H]21)C3(C)C [Taxotere] | 2.5 months | – |
| CC(=O)O[C@H]1CC[C@@]2(C)C(=CC[C@@H]3[C@@H]2CC[C@]2(C)C(c4cccnc4)=CC[C@@H]32)C1 [abiraterone acetate] | – | ≤ 70 % of patients |
